Like-named read-outs stand apart in the source and are kept apart here. Residues, ends and D or L forms follow the SMILES beside them. No end group written: not given here.
What was measured:
Type in all cases: cell-based
cells = assay: Anti-cancer effect of FSP27 segment in cells
[1] = tested on: HepG2 human liver cancer (hepatocellular carcinoma) cells; assay: cells; conditions: for efficacy in inhibiting cell viability: human liver cancer, 50 nM; for inhibition of cell viability: human, 100 nM
Method: (§1) Human cancer cell lines (part of NCI-60 panel of human cancer cells)—SK-MEL-5 (melanoma), SK-MEL-28 (melanoma), MCF-7 (breast cancer), 786-0 (renal cancer), A498 (renal cancer), Hep-G2 (liver cancer), SK-HEP-1 (liver cancer), PANC-1 (pancreatic cancer), and normal human skin fibroblast cells MALME-3 cells were obtained from American Type Culture Collection (ATCC; Manassas, VA). The cells were grown and maintained in corresponding complete growth medium—PANC-1 in DMEM medium (ATCC), 786-0 in RPMI-1640 medium, remaining cell lines in EMEM media (ATCC), and MALME-3 in McCoy's medium (ATCC)—as indicated by ATCC protocols. Complete growth media was supplemented with 10% fetal bovine serum (FBS; ATCC) and 1× antibiotic-antimycotic (Thermo Fisher Scientific, Waltham, MA). MALME-3 cells were grown in McCoy's medium (ATCC) supplemented with 15% FBS and 1× antibiotic-antimycotic. Cells were grown at 37C/5% CO2 in a humidified incubator. Media was replaced every third day.
(§2) Recombinant hGH was purchased from Antibodies Online (Atlanta, GA), GH antagonist (GHA; Somavert) was obtained from Pfizer (New York City, NY), full length CIDEC was purchased from Abcam (Cambridge, UK) and CIDEC fragment peptides were synthesized at Genscript (Piscataway, NJ). No hGH or GHA was present in the media or added externally unless specifically mentioned. For hGH treatment, 16 hr. after cell seeding (or 24 hr. post-transfection), any GH or GHA or CIDEC or peptides were added at specific concentrations. […]
(§3) A resazurin based absorption assay was performed measuring cell proliferation, as a measure of inhibition of cell growth/viability. There are several commonly practiced assays using tetrazolium (MTT, MTS, XTT), or resazurin which give a quantitative reflection of cell viability. Although ATP detection assay is the most sensitive of the available options, resazurin-based assay is considered adequate and is routinely used to measure compound EC50s or cell viability following cytotoxic treatments. A stock solution of 1% (w/v) resazurin (Sigma-Aldrich #R7017) in 1×PBS was made and filter-sterilized. The final concentration of resazurin in the assay was 0.004%. Proliferating cells can be quantified by spectrophotometric measurement of a bright pink fluorescent product called resorufin (stable for >4 hr) formed when mildly fluorescent blue resazurin enters a reducing intracellular environment characteristic of proliferating cells. Cells were seeded at 10,000 cells/cm^2 into 96-well plates and transfected as described above. The resazurin assay was performed following the respective treatment periods and resorufin absorbance was measured at 570 nm (reference wavelength=600 nm) using Spectramax250 (Molecular Devices, Sunnyvale, CA) and SoftmaxPro software. In all cases, cells were incubated at 37C/5% CO2 for 1 hr following resazurin addition. The resazurin assay for cell proliferation was used to measure EC-50 of relevant drugs and Graph Pad Prism was used to calculate EC-50 shifts (EC50 shift=EC50 of treated cell line/EC50 of parental cell line.
(§4) A 1% (w/v) resazurin (Sigma-Aldrich) solution in 1×PBS was made and filter-sterilized. The final concentration of resazurin in the assay was 0.004%. Inside the proliferating cells mildly fluorescent blue resazurin is reduced to a bright pink fluorescent product called resorufin (stable for 4 hr), which is a quantitative measure of the percentage of proliferating cells. In all cases, cells were incubated at 37C/5% CO2 for 45-60 minutes for adequate sensitivity of detection. Briefly, cells were seeded at 10,000 cells/cm^2 into 96-well plates and transfected as described above. The resazurin assay was performed 60 hr after transfection (unless specified otherwise) and resorufin absorbance was measured at 570 nm (reference wavelength=600 nm) using Spectramax250 (Molecular Devices) and SoftmaxPro v4.7.1 software. […]

[2] = tested on: 786-O human renal cancer (clear cell renal cell carcinoma) cells; conditions: for efficacy in inhibiting cell viability: human kidney cancer, 50 nM; for efficacy in inhibiting cell viability / inhibition of cell viability: 48 hr; for inhibition of cell viability: human, 100 nM
Excerpt: (§5) FIG. 11: Effect of CIDEC and fragment peptides on human renal cancer cell (786-0) viability. [full-length CIDEC, #1, #2, #4, #5, #6=shorter fragment peptides of full-length CIDEC]; Cell: human renal cancer cells; Assay: Cell viability assay (Presto-Blue, Invitrogen); Doses (nM): 0, 50, 100; Treatment period (hr): 48.
as §1, §2, §3
as §4, with “above.” for “above. The resazurin assay was performed 60 hr after transfection (unless specified otherwise) and resorufin absorbance was measured at 570 nm (reference wavelength=600 nm) using Spectramax250 (Molecular Devices) and SoftmaxPro v4.7.1 software.”

[3] = tested on: SK-MEL-28 human melanoma cells; conditions: 48 hr; for efficacy in inhibiting cell viability: human melanoma, 50 nM; for inhibition of cell viability: human, 100 nM
Excerpt: as §5, with “10:” for “11:”, “melanoma” for “renal cancer”, “(SK-MEL-28)” for “(786-0)”, “melanoma cells SK-MEL-28;” for “renal cancer cells;”
as §1
as §2, with “mentioned.” for “mentioned. For hGH treatment, 16 hr. after cell seeding (or 24 hr. post-transfection), any GH or GHA or CIDEC or peptides were added at specific concentrations.”
(§6) A resazurin based absorption assay was performed measuring cell proliferation, as a measure of inhibition of cell growth/viability. There are several commonly practiced assays using tetrazolium (MTT, MTS, XTT), or resazurin which give a quantitative reflection of cell viability. […] Proliferating cells can be quantified by spectrophotometric measurement of a bright pink fluorescent product called resorufin (stable for >4 hr) formed when mildly fluorescent blue resazurin enters a reducing intracellular environment characteristic of proliferating cells. […] The resazurin assay was performed following the respective treatment periods and resorufin absorbance was measured at 570 nm (reference wavelength=600 nm) using Spectramax250 (Molecular Devices, Sunnyvale, CA) and SoftmaxPro software. […]
A 1% (w/v) resazurin (Sigma-Aldrich) solution in 1×PBS was made and filter-sterilized. […] Inside the proliferating cells mildly fluorescent blue resazurin is reduced to a bright pink fluorescent product called resorufin (stable for 4 hr), which is a quantitative measure of the percentage of proliferating cells. […]

[4] = tested on: PANC-1 human pancreatic ductal adenocarcinoma cells; assay: Cell viability assay (Presto-Blue / resazurin), PANC-1
Method: as §1, with “MALME-3 cells were grown in McCoy's medium (ATCC) supplemented with 15% FBS and 1× antibiotic-antimycotic. Cells were grown at 37C/5% CO2 in a humidified incubator. Media was replaced every third day.” left out
(§7) A resazurin based absorption assay was performed measuring cell proliferation, as a measure of inhibition of cell growth/viability. There are several commonly practiced assays using tetrazolium (MTT, MTS, XTT), or resazurin which give a quantitative reflection of cell viability. […] Proliferating cells can be quantified by spectrophotometric measurement of a bright pink fluorescent product called resorufin (stable for >4 hr) formed when mildly fluorescent blue resazurin enters a reducing intracellular environment characteristic of proliferating cells. […]

[5] = tested on: MCF-7 human breast cancer cells; assay: Cell viability assay (Presto-Blue / resazurin), MCF-7
Method: as §1, with “MALME-3 cells were grown in McCoy's medium (ATCC) supplemented with 15% FBS and 1× antibiotic-antimycotic. Cells were grown at 37C/5% CO2 in a humidified incubator. Media was replaced every third day.” left out
as §7

[6] = tested on: human normal fibroblast cells; assay: Cell viability assay (Presto-Blue / resazurin), normal fibroblasts; conditions: exposure to up to 100 nM CIDEC, 24 hr
Method: FIG. 6: Effect of CIDEC on human normal fibroblast cells; Cell: human normal fibroblast cells; Assay: Cell viability assay (Presto-Blue, Invitrogen); Doses (nM): 0, 50, 100 nM; Treatment period (hr): 24.
Human cancer cell lines (part of NCI-60 panel of human cancer cells)—SK-MEL-5 (melanoma), SK-MEL-28 (melanoma), MCF-7 (breast cancer), 786-0 (renal cancer), A498 (renal cancer), Hep-G2 (liver cancer), SK-HEP-1 (liver cancer), PANC-1 (pancreatic cancer), and normal human skin fibroblast cells MALME-3 cells were obtained from American Type Culture Collection (ATCC; Manassas, VA). […]
as §6

[7] = tested on: SK-MEL-28 human melanoma cells

Molecule: segment 120-140: segment of FSP27, amino acids 120-140; FIG. 13 discloses SEQ ID NO: 4, so possibly Cf4 (SEQGTRHPLSLSHKPAKKIDV)
- efficacy towards anti-cancer effect in cells (cells): maximum efficacy

Molecule: YDLHCCGAKRIMKEAFRWALFSMQATGHVLLGTSCYLQQLLDATEEGQ (cysteines drawn unpaired) [Cf2]
- efficacy in inhibiting cell viability ([1]; 48 hr): highly efficacious
- inhibition of cell viability ([1]; 48 hr): 100%
- efficacy in inhibiting cell viability [2]: highly efficacious
- inhibition of cell viability [2]: 100%
- efficacy in inhibiting cell viability [3]: highly efficacious
- inhibition of cell viability [3]: 100%

Molecule: COc1cccc2c1C(=O)c1c(O)c3c(c(O)c1C2=O)C[C@@](O)(C(=O)CO)C[C@@H]3O[C@H]1C[C@H](N)[C@H](O)[C@H](C)O1 [doxorubicin, reference compound]
- EC50 ([1]; Homo sapiens, HepG2, read-out: doxorubicin EC50 for HepG2): 190 nM
- cells killed ([1]; doxorubicin 300 nM, in absence of CIDEC): > 90%

Molecule: CC[C@H](C)[C@H](NC(=O)[C@H](CCCCN)NC(=O)[C@H](CCCCN)NC(=O)[C@H](C)NC(=O)[C@@H]1CCCN1C(=O)[C@H](CCCCN)NC(=O)[C@H](Cc1c[nH]cn1)NC(=O)[C@H](CO)NC(=O)[C@H](CC(C)C)NC(=O)[C@H](CO)NC(=O)[C@H](CC(C)C)NC(=O)[C@@H]1CCCN1C(=O)[C@H](Cc1c[nH]cn1)NC(=O)[C@H](CCCNC(=N)N)NC(=O)[C@@H](NC(=O)CNC(=O)[C@H](CCC(N)=O)NC(=O)[C@H](CCC(=O)O)NC(=O)[C@@H](N)CO)[C@@H](C)O)C(=O)N[C@@H](CC(=O)O)C(=O)N[C@H](C(=O)O)C(C)C [Cf4] (H-SEQGTRHPLSLSHKPAKKIDV-OH; N-terminus and C-terminus assumed)
- efficacy in inhibiting cell viability ([1]; 48 hr): highly efficacious
- inhibition of cell viability ([1]; 48 hr): 100%
- efficacy in inhibiting cell viability [2]: highly efficacious
- inhibition of cell viability [2]: 100%
- efficacy in inhibiting cell viability [3]: highly efficacious
- inhibition of cell viability [3]: 100%

B1: CIDEC: human full-length CIDEC (FSP27) protein, purchased from Abcam (protein, UniProt Q96AQ7 1-238, looked up)
chain: MEYAMKSLSLLYPKSLSRHVSVRTSVVTQQLLSEPSPKAPRARPCRVSTADRSVRKGIMAYSLEDLLLKVRDTLMLADKPFFLVLEEDGTTVETEEYFQALAGDTVFMVLQKGQKWQPPSEQGTRHPLSLSHKPAKKIDVARVTFDLYKLNPQDFIGCLNVKATFYDTYSLSYDLHCCGAKRIMKEAFRWALFSMQATGHVLLGTSCYLQQLLDATEEGQPPKGKASSLIPTCLKILQ
modifications: full-length
notes: human full-length CIDEC (FSP27) protein, purchased from Abcam
- effect on efficacy of sorafenib-tosylate against liver cancer ([1]; 50 nM CIDEC plus anti-cancer drug, 48 hr): significant increase in efficacy
- EC50 ([1]; HepG2, 0-400 nM CIDEC, read-out: EC50 (dose that causes 50% decrease of cell viability)): 65 nM
- IC50 ([1]; HepG2, 24 hr, doses 0-400 nM, read-out: IC50, sigmoid inhibition curve of cell viability): 65 nM
- decrease in cell viability of liver cancer cells treated with sorafenib-tosylate ([1]; co-administration of fl-CIDEC with sorafenib-tosylate (1000 nM), 24 hr): 2 fold
- EC50 ([4]; PANC1, 0-400 nM CIDEC): 132 nM
- IC50 ([4]; PANC-1, 24 hr, doses 0-400 nM, read-out: IC50, sigmoid inhibition curve of cell viability): 132 nM
- EC50 ([5]; MCF-7, 0-400 nM CIDEC): 187 nM
- IC50 ([5]; MCF-7, 24 hr, doses 0-400 nM, read-out: IC50, sigmoid inhibition curve of cell viability): 187 nM
- EC50 ([2]; 786-0, up to 400 nM CIDEC, read-out: EC50 (cell viability)): > 400 nM
- IC50 ([2]; 786-O, 24 hr, doses 0-400 nM, read-out: IC50, sigmoid inhibition curve of cell viability): > 400 nM
- decrease in cell viability of normal cells [6]: no significant decrease in cell viability
- improvement of drug effects in human melanoma ([7]; 50 nM CIDEC plus anti-cancer drugs, 48 hr): did not improve drug effects
- IC50 ([7]; SK-MEL-28, 24 hr, doses 0-400 nM, read-out: IC50, sigmoid inhibition curve of cell viability): > 400 nM
- EC50 ([7]; SK-MEL-28, up to 400 nM CIDEC, read-out: EC50 (cell viability)): > 400 nM
- improvement of cell inhibition rate above that of doxorubicin or vemurafenib ([7]; co-administration, 24 hr, doxorubicin 300 nM, vemurafenib 50 nM): did not improve the cell inhibition rate
